Where “and” joins values, the source holds several entries; their conditions need not be identical. Equal values may be shown once.
Details: Liquid, Transpiration method

CN(C)CCN [2-dimethylamino-1-ethylamine]
Details | vapor or sublimation pressure
273.8 K | 0.7397 kPa
274.2 K | 0.7526 kPa
275.2 K | 0.808 kPa
276.7 K | 0.8869 kPa
278.2 K | 0.9687 kPa
280.7 K | 1.114 kPa
283.2 K | 1.309 kPa
285.6 K | 1.561 kPa
288.2 K | 1.821 kPa
290.7 K | 2.088 kPa
293.2 K | 2.392 kPa
295.6 K | 2.763 kPa
298.2 K | 3.186 kPa and 3.282 kPa
300.7 K | 3.755 kPa and 3.727 kPa
303.2 K | 4.331 kPa and 4.291 kPa

CNCCN [N-methylethylenediamine]
Details | vapor or sublimation pressure [kPa]
272.2 K | 0.2731
274.3 K | 0.3181
275.4 K | 0.3449
278 K | 0.4148
278.6 K | 0.4455
279.4 K | 0.4695
280.2 K | 0.4943
281.3 K | 0.5355
282.3 K | 0.5867
283.1 K | 0.6075
284.1 K | 0.6579
284.9 K | 0.6972
286.3 K | 0.7738
287.8 K | 0.8601
289.3 K | 0.9404
290.6 K | 1.034
292.2 K | 1.176
294.6 K | 1.394
296.2 K | 1.541
298.1 K | 1.762
300.2 K | 2.017
302.2 K | 2.275

CNCCNC [N1,N2-dimethylethane-1,2-diamine]
Details | vapor or sublimation pressure [kPa]
279.2 K | 0.4258
281.4 K | 0.5045
283.3 K | 0.5851
285.6 K | 0.6936
288.2 K | 0.8579
290.6 K | 1.023
293.2 K | 1.228
295.8 K | 1.498
298.2 K | 1.781
300.7 K | 2.106
303.4 K | 2.477
305.6 K | 2.892
308.2 K | 3.408
310.7 K | 3.974

CNCCN(C)C [N,N,N'-trimethylethylenediamine]
Details | vapor or sublimation pressure [kPa]
274.2 K | 0.5021
276.7 K | 0.605
281.8 K | 0.8858
286.8 K | 1.271
291 K | 1.686
296.3 K | 2.403
298.2 K | 2.733
301 K | 3.259
303.2 K | 3.811
304.1 K | 4.074
305.4 K | 4.402

Reference: the NIST ThermoML archive (doi:10.1021/acs.jced.5b01003)
